Measured values as given in patent US11566007B2, “Ras inhibitors” (Revolution Medicines, Inc., priority 2019, dated 2023).

What was measured:
[1] = system: NCI-H358 cells (K-Ras G12C); assay: Potency assay: pERK in NCI-H358 cells; type: cell-based, human; details: Homo sapiens, NCI-H358; H358 KRAS G12C; read-out: pERK EC50
Procedure, shortened: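 4 h cpd, 37 °C; 10-pt 3-fold series, 10 mM DMSO top stock, duplicates. Readout pERK: AlphaLISA SureFire Ultra or In-Cell Western (IR-800CW secondary, DRAQ5 DNA stain). IC50, 4-PL fit vs log conc.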

K-Ras G12C = K-Ras G12C (Homo sapiens (Human), UniProt P01116+P62937, G12C); assay: Ras-Raf (BRAF RBD) disruption / FRET / MOA assay, KRAS G12C; type: biochemical; details: KRAS G12C; Ras-Raf disruption/FRET/MOA assay; read-out: IC50* KRAS G12C FRET data
K-Ras G12C, sequence (P01116-2 other isoform, or with tags, fused parts or gaps G12C): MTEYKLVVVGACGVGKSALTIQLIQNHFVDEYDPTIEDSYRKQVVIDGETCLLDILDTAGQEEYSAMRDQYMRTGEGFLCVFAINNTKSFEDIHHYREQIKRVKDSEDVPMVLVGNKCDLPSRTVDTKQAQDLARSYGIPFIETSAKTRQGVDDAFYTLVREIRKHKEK
K-Ras G12C, sequence (P62937 whole entry): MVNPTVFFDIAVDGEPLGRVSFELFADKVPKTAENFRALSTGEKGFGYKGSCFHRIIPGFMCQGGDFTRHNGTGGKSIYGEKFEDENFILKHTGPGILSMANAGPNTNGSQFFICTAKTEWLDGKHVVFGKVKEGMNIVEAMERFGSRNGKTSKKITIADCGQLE
Procedure, shortened: (§1)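 Compound-driven ternary complex of nucleotide-loaded Ras with cyclophilin A, disrupting BRAF RBD binding. 10-point 3-fold dilution from 30 μM final, 3 h at 25° C, then anti-His Eu-W1024 (10 nM) and anti-GST allophycocyanin (50 nM) for 1.5 h. IC50 from TR-FRET ratio decrease versus DMSO.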

KRAS G12S = KRAS G12S (Homo sapiens (Human), UniProt P01116+P62937, G12S); assay: Ras-Raf (BRAF RBD) disruption / FRET / MOA assay, KRAS G12S; type: biochemical; details: Ras-Raf disruption/FRET/MOA assay; class symbols; read-out: KRAS G12S FRET data IC50
KRAS G12S, sequence (P01116-2 other isoform, or with tags, fused parts or gaps G12S): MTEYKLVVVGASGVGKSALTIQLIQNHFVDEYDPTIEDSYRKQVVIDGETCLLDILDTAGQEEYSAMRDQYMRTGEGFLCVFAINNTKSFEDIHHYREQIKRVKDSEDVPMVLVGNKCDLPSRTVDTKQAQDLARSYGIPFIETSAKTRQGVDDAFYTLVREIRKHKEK
KRAS G12S, sequence (P62937 whole entry): as the sequence (P62937 whole entry) above
Procedure, shortened: as §1

KRAS G12V = KRAS G12V (Homo sapiens (Human), UniProt P01116+P62937, G12V); assay: Ras-Raf (BRAF RBD) disruption / FRET / MOA assay, KRAS G12V; type: biochemical; details: read-out: IC50* KRAS G12V FRET data
KRAS G12V, sequence (P01116-2 other isoform, or with tags, fused parts or gaps G12V): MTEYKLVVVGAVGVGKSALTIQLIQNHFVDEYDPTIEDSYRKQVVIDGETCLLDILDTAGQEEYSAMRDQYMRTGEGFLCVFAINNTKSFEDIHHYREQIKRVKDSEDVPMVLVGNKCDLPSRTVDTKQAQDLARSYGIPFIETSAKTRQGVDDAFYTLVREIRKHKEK
KRAS G12V, sequence (P62937 whole entry): as the sequence (P62937 whole entry) above
Procedure, shortened: as §1

KRAS G13D = KRAS G13D (Homo sapiens (Human), UniProt P01116+P62937, G13D); assay: Ras-Raf (BRAF RBD) disruption / FRET / MOA assay, KRAS G13D; type: biochemical; details: read-out: IC50* KRAS G13D FRET data
KRAS G13D, sequence (P01116-2 other isoform, or with tags, fused parts or gaps G13D): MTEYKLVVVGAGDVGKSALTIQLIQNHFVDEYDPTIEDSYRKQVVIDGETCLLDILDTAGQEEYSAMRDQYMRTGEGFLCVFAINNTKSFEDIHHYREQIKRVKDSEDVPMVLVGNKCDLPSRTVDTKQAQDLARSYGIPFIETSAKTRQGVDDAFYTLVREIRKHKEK
KRAS G13D, sequence (P62937 whole entry): as the sequence (P62937 whole entry) above
Procedure, shortened: as §1

NRAS G12C = NRAS G12C (Homo sapiens (Human), UniProt P01111+P62937, G12C); assay: Ras-Raf (BRAF RBD) disruption / FRET / MOA assay, NRAS G12C; type: biochemical; details: read-out: IC50* NRAS G12C FRET data
NRAS G12C, sequence (P01111 whole entry G12C): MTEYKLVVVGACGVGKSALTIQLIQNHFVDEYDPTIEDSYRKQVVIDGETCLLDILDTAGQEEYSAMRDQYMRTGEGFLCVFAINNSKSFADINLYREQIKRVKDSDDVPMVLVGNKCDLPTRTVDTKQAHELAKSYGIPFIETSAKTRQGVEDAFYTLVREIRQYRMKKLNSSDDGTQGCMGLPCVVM
NRAS G12C, sequence (P62937 whole entry): as the sequence (P62937 whole entry) above
Procedure, shortened: as §1

NRAS WT = NRAS WT (Homo sapiens (Human), UniProt P01111+P62937); assay: Ras-Raf (BRAF RBD) disruption / FRET / MOA assay, NRAS WT; type: biochemical; details: read-out: IC50* NRAS WT FRET data
NRAS WT, sequence (P01111 whole entry): as the sequence (P01111 whole entry G12C) above, with C12G counted along it
NRAS WT, sequence (P62937 whole entry): as the sequence (P62937 whole entry) above
Procedure, shortened: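 Compounds (30 μM top final, 10-point 3-fold dilutions) incubated 3 h at 25° C with nucleotide-loaded Ras, cyclophilin A and BRAF RBD. Detection with 10 nM anti-His Eu-W1024 and 50 nM anti-GST allophycocyanin over another 1.5 h. Lowered TR-FRET ratio relative to DMSO wells gives IC50.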

SMILES | EC50 [1] [nM] | IC50 (K-Ras G12C) [nM] | IC50 (KRAS G12S) [nM] | IC50 (KRAS G12V) [nM] | IC50 (KRAS G13D) [nM] | IC50 (NRAS G12C) [nM] | IC50 (NRAS WT) [nM]
CCn1c(-c2cccnc2[C@H](C)OC)c2c3cc(ccc31)-c1cccc(c1)C[C@H](NC(=O)[C@@H](COC1CN(C(=O)C#CC(C)(C)O)C1)C(C)C)C(=O)N1CCC[C@H](N1)C(=O)OCC(C)(C)C2 (atropisomer, axis not shown) [Example A708] | < 5000 | 100 to 1000 | > 10000 | 1000 to 10000 | > 10000 | 100 to 1000 | 1000 to 10000
CCn1c(-c2cccnc2[C@H](C)OC)c2c3cc(ccc31)-c1csc(n1)C[C@H](NC(=O)[C@H](C(C)C)N(C)C(=O)N1CCN(C(=O)/C=C/CN(C)C)C[C@@H]1C)C(=O)N1CCC[C@H](N1)C(=O)OCC(C)(C)C2 (atropisomer, axis not shown) [Example A709] | < 5000 | 10 to 100 | 100 to 1000 | 100 to 1000 | 100 to 1000 | 10 to 100 | 10 to 100
CCn1c(-c2cccnc2[C@H](C)OC)c2c3cc(ccc31)-c1csc(n1)C[C@H](NC(=O)[C@H](C(C)C)N(C)C(=O)N1CC(N(C)C(=O)/C=C/CN(C)C)C1)C(=O)N1CCC[C@H](N1)C(=O)OCC(C)(C)C2 (atropisomer, axis not shown) [Example A710] | < 5000 | 10 to 100 | 100 to 1000 | 100 to 1000 | 100 to 1000 | 10 to 100 | 100 to 1000
C=C(OC)C(=O)N1CC(N(C)C(=O)N(C)[C@H](C(=O)N[C@H]2Cc3nc(cs3)-c3ccc4c(c3)c(c(-c3cccnc3[C@H](C)OC)n4CC)CC(C)(C)COC(=O)[C@@H]3CCCN(N3)C2=O)C(C)C)C1 (atropisomer, axis not shown) [Example A713] | < 5000 | 100 to 1000 | 100 to 1000 | 1000 to 10000 | 1000 to 10000 | 100 to 1000 | 100 to 1000
C=CC(=O)N1CC[C@H](C(=O)N(C)[C@H](C(=O)N[C@H]2CN3CCC=C(C3)c3ccc4c(c3)c(c(-c3cccnc3[C@H](C)OC)n4CC)CC(C)(C)COC(=O)[C@@H]3CCCN(N3)C2=O)C(C)C)C1 (atropisomer, axis not shown) [Example A716, (3S)-1-acryloyl-N-((2S)-1-(((6^3S,4S)-1^1-ethyl-1^2-(2-((S)-1-methoxyethyl)pyridin-3-yl)-10,10-dimethyl-5,7-dioxo-2^1,2^2,2^3,2^6,6^1,6^2,6^3,6^4,6^5,6^6-decahydro-1^1H-8-oxa-1(5,3)-indola-6(1,3)-pyridazina-2(5,1)-pyridinacycloundecaphane-4-yl)amino)-3-methyl-1-oxobutan-2-yl)-N-methylpyrrolidine-3-carboxamide] | < 5000 | 100 to 1000 | 1000 to 10000 | 1000 to 10000 | > 10000 | 100 to 1000 | 1000 to 10000
CCn1c(-c2cccnc2[C@H](C)OC)c2c3cc(ccc31)-c1nc(nn1C)C[C@H](NC(=O)[C@@H](COC1CN(C(=O)C#CC(C)(C)N(C)C)C1)C(C)C)C(=O)N1CCC[C@H](N1)C(=O)OCC(C)(C)C2 (atropisomer, axis not shown) [Example A720, (2R)-2-(((1-(4-(dimethylamino)-4-methylpent-2-ynoyl)azetidin-3-yl)oxy)methyl)-N-((6^3S,4S,Z)-1^1-ethyl-1^2-(2-((S)-1-methoxyethyl)pyridin-3-yl)-2^1,10,10-trimethyl-5,7-dioxo-6^1,6^2,6^3,6^4,6^5,6^6-hexahydro-1^1H,2^1H-8-oxa-1(5,3)-indola-6(1,3)-pyridazina-2(5,3)-triazolacycloundecaphane-4-yl)-3-methylbutanamide] | < 5000 | 10 to 100 | 1000 to 10000 | 1000 to 10000 | 1000 to 10000 | 10 to 100 | 1000 to 10000
C=CC(=O)N1CCC(F)(C(=O)N(C)[C@H](C(=O)N[C@H]2C[C@H]3CN(CCO3)c3ccc4c(c3)c(c(-c3cccnc3[C@H](C)OC)n4CC)CC(C)(C)COC(=O)[C@@H]3CCCN(N3)C2=O)C(C)C)CC1 (atropisomer, axis not shown) [Example A722, 1-acryloyl-N-((2S)-1-(((6^3S,4S)-1^1-ethyl-1^2-(2-((S)-1-methoxyethyl)pyridin-3-yl)-10,10-dimethyl-5,7-dioxo-6^1,6^2,6^3,6^4,6^5,6^6-hexahydro-1^1H-8-oxa-2(4,2)-morpholina-1(5,3)-indola-6(1,3)-pyridazinacycloundecaphane-4-yl)amino)-3-methyl-1-oxobutan-2-yl)-4-fluoro-N-methylpiperidine-4-carboxamide] | < 5000 | 10 to 100 | 1000 to 10000 | 1000 to 10000 | 1000 to 10000 | 10 to 100 | 100 to 1000
C=CC(=O)N1CC(OC[C@H](C(=O)N[C@H]2C[C@H]3CN(CCO3)c3ccc4c(c3)c(c(-c3cccnc3[C@H](C)OC)n4CC(F)(F)F)CC(C)(C)COC(=O)[C@@H]3CCCN(N3)C2=O)C(C)C)C1 (atropisomer, axis not shown) [Example A723] | < 5000 | 100 to 1000 | 1000 to 10000 | 1000 to 10000 | > 10000 | 100 to 1000 | 1000 to 10000
